# Measurements: patent publication US7645757B2, “Derivatives of heteroaryl-alkylcarbamates, methods for their preparation and use thereof as fatty acid amido hydrolase enzyme inhibitors” (sanofi-aventis, priority 2004, dated 2010)
# pIC50: −log10 of the molar value.
# Columns and labels:
# male OF1 mice = assay: test for analgesia: PBQ (phenylbenzoquinone)-induced abdominal tractions; format: in vivo; settings: 10 mg/kg p.o.
# Description: The in vivo activity of the compounds of the invention was evaluated in a test for analgesia. Thus, the intraperitoneal (i.p.) administration of PBQ (phenylbenzoquinone, 2 mg/kg in a 0.9% sodium chloride solution comprising 5% of ethanol) to male OF1 mice weighing 25 to 30 g causes abdominal tractions, on average 30 twisting or contracting motions during the period from 5 to 15 minutes after injection. The test compounds are administered, orally (p.o.) or intraperitoneally (i.p.) in suspension in 0.5% Tween 80, 60 minutes or 120 minutes before the administration of PBQ. Under these conditions, the most powerful compounds of the invention reduce by 35 to 70% the number of tractions induced by the PBQ, within a range of doses of between 1 and 30 mg/kg.
# [1] = biological target: T1, enzyme FAAH (Fatty Acid amido Hydrolase) (Mus musculus, UniProt O08914); assay: radioenzymatic test of FAAH inhibition (hydrolysis of ((1-3H)ethanolamine)-anandamide by mouse brain membrane homogenates); format: biochemical; settings: 10 μM anandamide, 15 minutes at 25° C., read-out: IC50 (concentration which inhibits the control enzymatic activity of FAAH by 50%)
# T1 construct: The membrane homogenates are prepared at the time of use by homogenization of the tissues with a Polytron; from tissue; host or cells: mouse brain (minus the cerebellum), membrane homogenate
# T1 sequence (O08914 1-579): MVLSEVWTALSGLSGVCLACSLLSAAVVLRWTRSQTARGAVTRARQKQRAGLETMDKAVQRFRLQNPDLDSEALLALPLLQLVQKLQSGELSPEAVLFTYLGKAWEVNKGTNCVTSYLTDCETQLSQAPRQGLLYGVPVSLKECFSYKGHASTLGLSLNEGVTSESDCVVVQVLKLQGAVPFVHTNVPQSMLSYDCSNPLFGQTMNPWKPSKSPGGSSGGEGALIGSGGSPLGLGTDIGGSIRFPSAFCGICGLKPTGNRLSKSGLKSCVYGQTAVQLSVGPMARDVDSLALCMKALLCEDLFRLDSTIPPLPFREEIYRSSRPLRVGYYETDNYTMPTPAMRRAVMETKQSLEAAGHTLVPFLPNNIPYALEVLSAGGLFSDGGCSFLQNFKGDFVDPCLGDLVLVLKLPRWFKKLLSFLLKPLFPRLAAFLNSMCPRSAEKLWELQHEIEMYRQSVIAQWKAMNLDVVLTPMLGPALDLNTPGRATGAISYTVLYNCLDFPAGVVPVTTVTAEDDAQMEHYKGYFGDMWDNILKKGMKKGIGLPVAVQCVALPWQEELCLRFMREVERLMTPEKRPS
# Description: The compounds of the invention have formed the subject of pharmacological trials which make it possible to determine their inhibitory effect on the enzyme FAAH (Fatty Acid amido Hydrolase).
# Thus, mouse brains (minus the cerebellum) are removed and stored at −80° C. The membrane homogenates are prepared at the time of use by homogenization of the tissues with a Polytron in a 10 mM Tris-HCl buffer (pH 8.0) comprising 150 mM NaCl and 1 mM EDTA. The enzymatic reaction is subsequently carried out in 70 μl of buffer comprising bovine serum albumin free from fatty acids (1 mg/ml). The test compounds, at various concentrations, the ((1-^3H)ethanolamine)-anandamide (specific activity of 15-20 Ci/mmol), diluted to 10 μM with non-radiolabelled anandamide, and the membrane preparation (400 μg of frozen tissue per assay) are successively added. After 15 minutes at 25° C., the enzymatic reaction is halted by addition of 140 μl of chloroform/methanol (2:1). The mixture is stirred for 10 minutes and is then centrifuged at 3500 g for 15 minutes. An aliquot (30 μl) of the aqueous phase comprising the (1-^3H)ethanolamine is counted by liquid scintillation.
melting point [°C],SMILES,other results
130 to 132,"CNC(=O)COC(=O)NCCc1ccc(-c2ccccc2)nc1 [Compound 3, 2-(methylamino)-2-oxoethyl 2-(6-phenylpyrid-3-yl)ethylcarbamate]",
158 to 160,"CNC(=O)COC(=O)NCCCc1cc(-c2ccc(Cl)cc2)no1 [Compound 29, 2-(methylamino)-2-oxoethyl 3-[3-(4-chlorophenyl)isoxazol-5-yl]propylcarbamate]",
124 to 126,"NC(=O)COC(=O)NCCCCc1ccncc1 [Compound 37, 2-amino-2-oxoethyl 4-(pyrid-4-yl)butylcarbamate]",
52 to 54,"CNC(=O)COC(=O)NCCCCn1ccc2cccnc21 [Compound 58, 2-(methylamino)-2-oxoethyl 4-(1H-pyrrolo[2,3-b]pyrid-1-yl)butylcarbamate]",

# Continued, compound first:
SMILES,melting point [°C],other results
"CNC(=O)COC(=O)NCCCc1cc(-c2ccc(Cl)cc2)ncn1 [Compound 20, 2-(methylamino)-2-oxoethyl 3-[6-(4-chlorophenyl)pyrimidin-4-yl]propylcarbamate]",147 to 149,
"CNC(=O)COC(=O)NCCCc1cc(-c2ccc(-c3ccccc3)cc2)no1 [Compound 30, 2-(methylamino)-2-oxoethyl 3-[3-(4-phenylphenyl)isoxazol-5-yl]propylcarbamate]",198 to 200,
"CNC(=O)COC(=O)NCCCCc1cc(-c2ccc(Cl)cc2)no1 [Compound 48, 2-(methylamino)-2-oxoethyl 4-[3-(4-chlorophenyl)isoxazol-5-yl]butylcarbamate]",,reduction of the number of tractions induced by the PBQ (male OF1 mice; administered 60 minutes before PBQ): 53%; reduction of the number of tractions induced by the PBQ (male OF1 mice; administered 120 minutes before PBQ): 62%
"CNC(=O)COC(=O)NCCCCn1ccc2ccccc21 [Compound 56, 2-(methylamino)-2-oxoethyl 4-(1H-indol-1-yl)butylcarbamate]",64 to 67,
"NC(=O)COC(=O)NCCCCCc1cncc2ccccc12 [Compound 68, 2-amino-2-oxoethyl 5-(isoquinolin-4-yl)pentylcarbamate]",,pIC50 [1]: 6.57
"NC(=O)COC(=O)NCCCC#Cc1cccc2ccccc12 [Compound 71, 2-amino-2-oxoethyl [5-(naphth-1-yl)pent-4-yn-1-yl]carbamate]",105 to 108,
